One assay has as its target BACE1 (Homo sapiens (Human), UniProt P56817). Put plainly: Cellular Aβ-lowering assay. The format is cell-based. Particulars: HEK293 cells stably expressing human APP wt (APP695); Aβ40 in supernatant by ELISA after 18-20 hrs. The protocol: Cellular Aβ-Lowering Assay: Human HEK293 cells which are stably transfected with a vector expressing a cDNA of the human APP wt gene (APP695) were used to assess the potency of the compounds in a cellular assay. The cells were seeded in 96-well microtiter plates in cell culture medium (Iscove, plus 10% (v/v) fetal bovine serum, glutamine, penicillin/streptomycin) to about 80% confluence and the compounds were added at a 10× concentration in 1/10 volume of medium without FCS containing 8% DMSO (final concentration of DMSO was kept at 0.8% v/v). After 18-20 hrs incubation at 37° C. and 5% CO2 in a humidified incubator the culture supernatant was harvested for the determination of Aβ40 concentrations. […] After blocking of non-specific binding sites with e.g. 1% BSA and washing, the culture supernatants were added in suitable dilutions together with a horseradish peroxidase-coupled Aβ detection antibody (e.g., antibody 4G8, Senetek, Maryland Heights, Mo.) and incubated for 5 to 7 hrs. Subsequently the wells of the microtiter plate were washed extensively with Tris-buffered saline containing 0.05% Tween 20 and the assay was developed with tetramethylbenzidine/H2O2 in citric acid buffer. After stopping the reaction with one volume […] the reaction was measured in an ELISA reader at 450 nm wavelength. The concentrations of Aβ in the culture supernatants were calculated from a standard curve obtained with known amounts of pure Aβ peptide.

Another assay addresses BACE2 (Rattus norvegicus (Rat), UniProt Q6IE75). Kind of assay: Assay for BACE inhibition by measuring cellular TMEM27 cleavage. The format is cell-based. The settings on record: INS-TMEM27 (INS1e rat cell line, inducible hTMEM27); shed TMEM27 by ELISA. The source says:
Assay for BACE Inhibition by Measuring Cellular TMEM27 Cleavage:
The assay uses the principle of inhibition of human TMEM27 cleavage by endogenous cellular BACE2 in the Ins1e rat cell line and shedding from the cell surface into the culture medium, followed by detection in an ELISA assay Inhibition of BACE2 prevents the cleavage and shedding in a dose-dependent manner.
The stable cell line “INS-TMEM27” represents an INS1e-derived cell line with inducible expression (using the TetOn system) of full-length hTMEM27 in a doxycycline-dependent manner. The cells are cultured throughout the experiment in RPMI1640+Glutamax (Invitrogen) Penicillin/Streptomycin, 10% Fetal bovine serum, […], […], 100 micrograms/ml G418 and 100 microgram/ml hygromycin and are grown inadherent culture at 37° C. in a standard CO2 cell culture incubator.
INS-TMEM27 cells are seeded in 96-well plates. After 2 days in culture, BACE2 inhibitor is added in a range of concentrations as required by the assay and after a further two hours, doxycycline is added to a final concentration of 500 ng/ml. The cells are incubated for a further 46 hours and the supernatant harvested for detection of shed TMEM27.
An ELISA assay (using a pair of mouse anti-human-TMEM27 antibodies, raised against the extracellular domain of TMEM27) is used for detection of TMEM27 in the culture medium. An EC50 for BACE2 inhibition is calculated using the ELISA readout for each inhibitor concentration with standard curve-fitting software such as XLFit for the Excel spreadsheet program.

Chain of BACE1 (P56817 46-501): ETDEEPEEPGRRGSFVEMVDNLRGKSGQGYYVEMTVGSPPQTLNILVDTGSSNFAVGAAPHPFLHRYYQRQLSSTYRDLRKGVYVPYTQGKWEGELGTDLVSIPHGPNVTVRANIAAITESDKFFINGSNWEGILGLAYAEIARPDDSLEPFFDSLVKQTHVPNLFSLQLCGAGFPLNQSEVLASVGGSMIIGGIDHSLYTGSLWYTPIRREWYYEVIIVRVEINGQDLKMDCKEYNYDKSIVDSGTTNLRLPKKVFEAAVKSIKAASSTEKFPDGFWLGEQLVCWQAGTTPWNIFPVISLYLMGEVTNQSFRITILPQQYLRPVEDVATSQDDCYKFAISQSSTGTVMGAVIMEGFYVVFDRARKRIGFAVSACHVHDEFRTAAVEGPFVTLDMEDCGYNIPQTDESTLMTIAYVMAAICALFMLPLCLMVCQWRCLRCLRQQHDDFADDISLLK
Chain of BACE2 (Q6IE75 63-514): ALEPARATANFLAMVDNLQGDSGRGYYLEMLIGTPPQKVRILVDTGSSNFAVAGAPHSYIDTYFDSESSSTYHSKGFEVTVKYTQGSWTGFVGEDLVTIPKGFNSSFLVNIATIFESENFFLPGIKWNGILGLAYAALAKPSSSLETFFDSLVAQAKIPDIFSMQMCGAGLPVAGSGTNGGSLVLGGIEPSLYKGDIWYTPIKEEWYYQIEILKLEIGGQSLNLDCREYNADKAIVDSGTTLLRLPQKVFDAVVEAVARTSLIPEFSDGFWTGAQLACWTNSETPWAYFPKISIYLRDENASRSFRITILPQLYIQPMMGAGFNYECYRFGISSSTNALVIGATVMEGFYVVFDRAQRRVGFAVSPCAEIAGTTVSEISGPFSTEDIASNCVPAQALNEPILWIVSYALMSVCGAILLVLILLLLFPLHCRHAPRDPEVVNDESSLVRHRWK

`C[C@]1(c2cc(NC(=O)c3ncc(C(F)(F)F)cc3F)ccc2F)N=C(N)OC[C@@H]1F` [Example 12, 3-Fluoro-5-trifluoromethyl-pyridine-2-carboxylic acid [3-((4R,5R)-2-amino-5-fluoro-4-methyl-5,6-dihydro-4H-[1,3]oxazin-4-yl)-4-fluoro-phenyl]-amide] gave an IC50 against BACE1 of 4 nM.

In turn, `C[C@]1(c2cc(NC(=O)c3ccc(OC(F)F)cn3)ccc2F)N=C(N)OC[C@@H]1F` [Example 6, 5-Difluoromethoxy-pyridine-2-carboxylic acid [3-((4R,5R)-2-amino-5-fluoro-4-methyl-5,6-dihydro-4H-[1,3]oxazin-4-yl)-4-fluoro-phenyl]-amide] yielded an IC50 on BACE1 of 2 nM.

On to `C[C@]1(c2cc(NC(=O)c3ncc(F)cc3F)ccc2F)N=C(N)OC[C@@H]1F` [Example 3, 3,5-Difluoro-pyridine-2-carboxylic acid [3-((4R,5R)-2-amino-5-fluoro-4-methyl-5,6-dihydro-4H-[1,3]oxazin-4-yl)-4-fluoro-phenyl]-amide], for which the results for the IC50 against BACE1 and against BACE2 were 1 nM and 7 nM, respectively.

Turning to `C[C@]1(c2cc(NC(=O)c3ncc(C#N)cc3Cl)ccc2F)N=C(N)OC[C@H]1F` [Example 35, 3-Chloro-5-cyano-pyridine-2-carboxylic acid [3-((4R,5S)-2-amino-5-fluoro-4-methyl-5,6-dihydro-4H-[1,3]oxazin-4-yl)-4-fluoro-phenyl]-amide], the values for the IC50 at BACE1 and on BACE2 were 82 nM and 511 nM, respectively.

As for `C[C@]1(F)COC(N)=N[C@]1(C)c1cc(NC(=O)c2ncc(Cl)cc2Cl)ccc1F` [Example 39, 3,5-Dichloro-pyridine-2-carboxylic acid [3-((4R,5R)-2-amino-5-fluoro-4,5-dimethyl-5,6-dihydro-4H-[1,3]oxazin-4-yl)-4-fluoro-phenyl]-amide], the figures for the IC50 on BACE1 and against BACE2 were 2 nM and 4 nM, respectively.

Consider `C[C@]1(F)COC(N)=N[C@]1(C)c1cc(NC(=O)C2CC2(F)F)ccc1F` (stereo partly drawn) [Example 44, 2,2-Difluoro-cyclopropanecarboxylic acid [3-((4R,5R)-2-amino-5-fluoro-4,5-dimethyl-5,6-dihydro-4H-[1,3]oxazin-4-yl)-4-fluoro-phenyl]-amide], for which the IC50 against BACE1 was determined as 32 nM; on BACE2 it was 140 nM.

Turning to `C[C@]1(c2cc(NC(=O)c3ccc(Cl)cn3)ccc2F)N=C(N)OC[C@@H]1OCC(F)(F)F` [Example 45, 5-Chloro-pyridine-2-carboxylic acid {3-[(4R,5R)-2-amino-4-methyl-5-(2,2,2-trifluoro-ethoxy)-5,6-dihydro-4H-[1,3]oxazin-4-yl]-4-fluoro-phenyl}-amide], the IC50 came to 1 nM on BACE1 and 61 nM at BACE2.

For `C[C@]1(c2cc(NC(=O)c3cncs3)ccc2F)N=C(N)OC[C@@H]1F` [Example 29, Thiazole-5-carboxylic acid [3-((4R,5R)-2-amino-5-fluoro-4-methyl-5,6-dihydro-4H-[1,3]oxazin-4-yl)-4-fluoro-phenyl]-amide], on BACE1, the IC50 is 250 nM.

Turning to `C[C@]1(c2cc(NC(=O)c3ccc(OCC(F)F)cn3)ccc2F)N=C(N)OC[C@@H]1F` [Example 21, 5-(2,2-Difluoro-ethoxy)-pyridine-2-carboxylic acid [3-((4R,5R)-2-amino-5-fluoro-4-methyl-5,6-dihydro-4H-[1,3]oxazin-4-yl)-4-fluoro-phenyl]-amide], on BACE1, the IC50 turned out to be 13 nM.

Regarding `C[C@]1(c2cc(NC(=O)c3ccc(F)cn3)ccc2F)N=C(N)OC[C@@H]1OCC(F)(F)F` [Example 46, 5-Fluoro-pyridine-2-carboxylic acid {3-[(4R,5R)-2-amino-4-methyl-5-(2,2,2-trifluoro-ethoxy)-5,6-dihydro-4H-[1,3]oxazin-4-yl]-4-fluoro-phenyl}-amide], the values for the IC50 at BACE1 and against BACE2 were 2 nM and 65 nM, respectively.

At BACE1, `C[C@]1(c2cc(NC(=O)C3(C#N)CC3)ccc2F)N=C(N)OC[C@@H]1F` [Example 31, 1-Cyano-cyclopropanecarboxylic acid [3-((4R,5R)-2-amino-5-fluoro-4-methyl-5,6-dihydro-4H-[1,3]oxazin-4-yl)-4-fluoro-phenyl]-amide] returned an IC50 of 75 nM.

As for `COc1ccc(C(=O)Nc2ccc(F)c([C@@]3(C)N=C(N)OC[C@@H]3F)c2)nc1` [Example 13, 5-Methoxy-pyridine-2-carboxylic acid [3-((4R,5R)-2-amino-5-fluoro-4-methyl-5,6-dihydro-4H-[1,3]oxazin-4-yl)-4-fluoro-phenyl]-amide], the results for the IC50 at BACE1 and on BACE2 were 4 nM and 65 nM, respectively.

In turn, `C[C@]1(c2cc(NC(=O)c3cnc(OCF)cn3)ccc2F)N=C(N)OC[C@@H]1F` [Example 10, 5-Fluoromethoxy-pyrazine-2-carboxylic acid [3-((4R,5R)-2-amino-5-fluoro-4-methyl-5,6-dihydro-4H-[1,3]oxazin-4-yl)-4-fluoro-phenyl]-amide] showed an IC50 against BACE1 of 24 nM.

For `C[C@]1(c2cc(NC(=O)c3cnc(OCC(F)F)cn3)ccc2F)N=C(N)OC[C@@H]1F` [Example 19, 5-(2,2-Difluoro-ethoxy)-pyrazine-2-carboxylic acid [3-((4R,5R)-2-amino-5-fluoro-4-methyl-5,6-dihydro-4H-[1,3]oxazin-4-yl)-4-fluoro-phenyl]-amide], on BACE1, the IC50 was 8 nM.

With `C[C@]1(c2cc(NC(=O)c3ccc(OCC4CC4)cn3)ccc2F)N=C(N)OC[C@@H]1F` [Example 23, 5-Cyclopropylmethoxy-pyridine-2-carboxylic acid [3-((4R,5R)-2-amino-5-fluoro-4-methyl-5,6-dihydro-4H-[1,3]oxazin-4-yl)-4-fluoro-phenyl]-amide], on BACE1, the IC50 is 15 nM.

`C[C@]1(c2cc(NC(=O)c3ccc(Cl)cn3)ccc2F)N=C(N)OC[C@H]1F` [Example 34, 5-Chloro-pyridine-2-carboxylic acid [3-((4R,5S)-2-amino-5-fluoro-4-methyl-5,6-dihydro-4H-[1,3]oxazin-4-yl)-4-fluoro-phenyl]-amide] yielded an IC50 at BACE1 of 42 nM.

In turn, `C[C@]1(c2cc(NC(=O)c3ccc(OCC(F)(F)C(F)(F)F)cn3)ccc2F)N=C(N)OC[C@@H]1F` [Example 25, 5-(2,2,3,3,3-Pentafluoro-propoxy)-pyridine-2-carboxylic acid [3-((4R,5R)-2-amino-5-fluoro-4-methyl-5,6-dihydro-4H-[1,3]oxazin-4-yl)-4-fluoro-phenyl]-amide] had a half-maximal inhibitory concentration (IC50) against BACE1 of 52 nM.

As for `C[C@]1(c2cc(NC(=O)c3ccc(OCC(F)(F)F)cn3)ccc2F)N=C(N)OC[C@@H]1OCC(F)(F)F` [Example 49, 5-(2,2,2-Trifluoro-ethoxy)-pyridine-2-carboxylic acid {3-[(4R,5R)-2-amino-4-methyl-5-(2,2,2-trifluoro-ethoxy)-5,6-dihydro-4H-[1,3]oxazin-4-yl]-4-fluoro-phenyl}-amide], the IC50 at BACE1 was found to be 21 nM.

At BACE1, `C[C@]1(c2cc(NC(=O)C3CC3)ccc2F)N=C(N)OC[C@@H]1F` [Example 32, Cyclopropanecarboxylic acid [3-((4R,5R)-2-amino-5-fluoro-4-methyl-5,6-dihydro-4H-[1,3]oxazin-4-yl)-4-fluoro-phenyl]-amide] gave an IC50 of 730 nM.

For `C[C@]1(c2cc(NC(=O)c3ccc(OCC(F)(F)C(F)F)cn3)ccc2F)N=C(N)OC[C@@H]1F` [Example 24, 5-(2,2,3,3-Tetrafluoro-propoxy)-pyridine-2-carboxylic acid [3-((4R,5R)-2-amino-5-fluoro-4-methyl-5,6-dihydro-4H-[1,3]oxazin-4-yl)-4-fluoro-phenyl]-amide], 17 nM corresponded to half-maximal inhibition on BACE1 (IC50).

As to `Cc1cc(C(=O)Nc2ccc(F)c([C@@]3(C)N=C(N)OC[C@@H]3F)c2)nn1C` [Example 30, 1,5-Dimethyl-1H-pyrazole-3-carboxylic acid [3-((4R,5R)-2-amino-5-fluoro-4-methyl-5,6-dihydro-4H-[1,3]oxazin-4-yl)-4-fluoro-phenyl]-amide], the IC50 on BACE1 was 760 nM.

`CC#CCOc1cnc(C(=O)Nc2ccc(F)c([C@@]3(C)N=C(N)OC[C@]3(C)F)c2)cn1` [Example 50, 5-But-2-ynyloxy-pyrazine-2-carboxylic acid [3-((4R,5R)-2-amino-5-fluoro-4,5-dimethyl-5,6-dihydro-4H-[1,3]oxazin-4-yl)-4-fluoro-phenyl]-amide] registered an IC50 on BACE1 of 0.1 nM.

These data come from patent US8754075B2, “1,3-oxazines as BACE1 and/or BACE2 inhibitors” (Hoffmann-La Roche Inc., priority 2011, dated 2014).
